Reference: the supplement of paper PMC6045584
± gives the standard deviation of the averaged measurements.

Key:
[1] = compound: CO[C@H]1C[C@@H]2CC[C@@H](C)[C@@](O)(O2)C(=O)C(=O)N2CCCC[C@H]2C(=O)O[C@H]([C@H](C)C[C@@H]2CC[C@@H](OCCO)[C@H](OC)C2)CC(=O)[C@H](C)/C=C(\C)[C@@H](O)[C@@H](OC)C(=O)[C@H](C)C[C@H](C)/C=C/C=C/C=C/1C [EVEROLIMUS]; assay: surviving fraction relative to DMSO-only wells; higher = less growth inhibition; details: exposure time: 5 days
In short: (§1)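 After seeding at 250–500 cells per well in 384-well plates and a 24-hour wait, log-phase tumour cell lines were exposed without interruption for five days to inhibitors at 0.5, 1, 5, 10, 50, 100, 500 and 1000 nM. CellTiter-Glo luminescence was recorded after 10 minutes at room temperature. Viability is reported as surviving fraction, the luminescence normalised to the median of DMSO-only wells.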

[2] = compound: CN(Cc1cnc2nc(N)nc(N)c2n1)c1ccc(C(=O)N[C@@H](CCC(=O)O)C(=O)O)cc1 [METHOTREXATE]; assay: as above; details: exposure time: 5 days
In short: as §1

| Test System | surviving fraction ([1]; 0.5 nM) | surviving fraction ([1]; 1 nM) | surviving fraction ([1]; 5 nM) | surviving fraction ([1]; 10 nM) | surviving fraction ([1]; 50 nM) | surviving fraction ([1]; 100 nM) | surviving fraction ([1]; 500 nM) | surviving fraction ([1]; 1000 nM) | surviving fraction ([2]; 0.5 nM) | surviving fraction ([2]; 1 nM) | surviving fraction ([2]; 5 nM) | surviving fraction ([2]; 10 nM) | surviving fraction ([2]; 50 nM) | surviving fraction ([2]; 100 nM) | surviving fraction ([2]; 500 nM) | surviving fraction ([2]; 1000 nM) |
| --- | --- | --- | --- | --- | --- | --- | --- | --- | --- | --- | --- | --- | --- | --- | --- | --- |
| C33A CERVIX | 0.757 ± 0.058 | 0.649 ± 0.06 | 0.469 ± 0.017 | 0.432 ± 0.0057 | 0.355 ± 0.027 | 0.369 ± 0.028 | 0.303 ± 0.051 | 0.277 ± 0.015 | 1.01 ± 0.15 | 0.936 ± 0.025 | 0.987 ± 0.11 | 0.519 ± 0.048 | 0.592 ± 0.075 | 0.585 ± 0.05 | 0.566 ± 0.034 | 0.557 ± 0.034 |
| CAL72 BONE | 0.967 ± 0.17 | 0.87 ± 0.16 | 0.707 ± 0.12 | 0.671 ± 0.1 | 0.61 ± 0.056 | 0.641 ± 0.057 | 0.576 ± 0.028 | 0.608 ± 0.026 | 1.04 ± 0.15 | 1.02 ± 0.13 | 1.03 ± 0.13 | 1.04 ± 0.11 | 0.641 ± 0.051 | 0.323 ± 0.061 | 0.301 ± 0.054 | 0.303 ± 0.068 |
| G292 BONE | 0.803 ± 0.0075 | 0.721 ± 0.038 | 0.518 ± 0.015 | 0.476 ± 0.024 | 0.433 ± 0.0098 | 0.436 ± 0.014 | 0.408 ± 0.015 | 0.405 ± 0.01 | 1.01 ± 0.048 | 1.07 ± 0.032 | 1.04 ± 0.069 | 1.06 ± 0.042 | 1.02 ± 0.042 | 1.04 ± 0.029 | 1.017 ± 0.0058 | 1.01 ± 0.024 |
